Data on 85 compounds can be found in ChEMBL document CHEMBL3988442, “University of Dundee, Small-Polar-MMV Screening Library” (2021).

A value given as a limit tells only on which side of the number the result lay.

Experiment [1] in a line: microbe, parasite or virus in culture. Conditions: Mycobacterium tuberculosis, 96 h, read-out: pIC50 (converted).
The nature of experiment [2]: microbe, parasite or virus in culture. Conditions: Mycobacterium tuberculosis, 72 h, read-out: pIC50 (converted).

Take `c1cc2c(cc1C1=NN=C(NC3CC3)SC1)OCCO2`: the IC50 in experiment [1] was 160 µM; in experiment [2], 158 µM.

Take `Cc1cc(Cl)ccc1NC(=O)CSc1n[nH]c(N)n1`: the IC50 in experiment [1] and in experiment [2] was > 501 µM in each case.

Turning to `Cc1ccccc1-n1nnnc1SCC(=O)NC1CC1`, the IC50 in experiment [1] is > 501 µM; in experiment [2], 199 µM.

For `NCCSCc1ccccc1F`, the IC50 in experiment [1] was 275 µM; in experiment [2], 231 µM.

In the case of `Cc1c(C(=O)NCC(N)=O)oc2ccc(Cl)cc12`, the IC50 in experiment [1] was 218 µM; in experiment [2], 102 µM.

In the case of `CC(=O)NCC1CNCCO1` (stereo not given), the IC50 in experiment [1] and in experiment [2] was > 501 µM each time.

Turning to `COc1ccc(C(C)CO)cc1` (stereo not given), the IC50 in experiment [1] and in experiment [2] was > 501 µM each time.

Turning to `CCc1ccc(CN(C)C(=O)c2cccn2C)nc1`, the IC50 in experiment [1] is 257 µM; in experiment [2], 175 µM.

`CC(C)c1cccc(S(=O)(=O)N2CCCC2CN)c1` (stereo not given): the IC50 in experiment [1] was > 501 µM; in experiment [2], 399 µM.

Consider `CO[C@H]1CNCC1NC(=O)c1cc2ccccc2n1C` (stereo not given in full), for which the IC50 is > 501 µM in experiment [1] and 359 µM in experiment [2].

On to `CN1CCOC(C(=O)Nc2ncc(Cl)s2)C1` (stereo not given), for which the IC50 is 296 µM in experiment [1] and 361 µM in experiment [2].

On to `O=C(COC(=O)c1ccccn1)Nc1ccccc1`, for which the IC50 was > 501 µM in experiment [1] and 234 µM in experiment [2].

On to `CC(=O)N1CCC(CN(C)Cc2ccc(Br)o2)C1` (stereo not given), for which the IC50 in experiment [1] and in experiment [2] was > 501 µM in each case.

As for `NCc1coc(-c2cccs2)n1`, the IC50 is 298 µM in experiment [1] and 144 µM in experiment [2].

With `Cc1ccc(S(=O)(=O)N2CCOc3ccncc32)cc1`, the IC50 in experiment [1] was 457 µM; in experiment [2], 99.3 µM.

Take `N#Cc1cc(Br)ccc1NCCC(=O)N1CCOCC1`: the IC50 in experiment [1] is > 501 µM; in experiment [2], 165 µM.

In the case of `CSc1ccc(CC(=O)N(C)Cc2ccon2)cc1`, the IC50 in experiment [1] and in experiment [2] was > 501 µM each time.

On to `O=C1CN(CC(=O)N2CCCCCCC2)CCN1`, for which the IC50 in experiment [1] and in experiment [2] was > 501 µM in each case.

With `Fc1ccc(Cn2ccnn2)c(Cl)c1`, the IC50 in experiment [1] and in experiment [2] was > 501 µM each time.

In the case of `CC(C)(C)OC(=O)N1CC(F)(F)CC1CO` (stereo not given), the IC50 in experiment [1] and in experiment [2] was > 501 µM in each case.

`COc1cccc(CNc2cncc(SC)n2)n1`: the figures for the IC50 in experiment [1] and in experiment [2] were 176 µM and 139 µM, respectively.

Regarding `CNc1cc(CN(C)Cc2ccccc2)ccn1`, the IC50 in experiment [1] is 430 µM; in experiment [2], 227 µM.

As for `O=C(CN1CCNCC1)c1ccco1`, the values for the IC50 in experiment [1] and in experiment [2] were 186 µM and 239 µM, respectively.

Turning to `O=S(=O)(c1ccco1)N1CCOCc2ccccc21`, the IC50 in experiment [1] was > 501 µM; in experiment [2] it was 291 µM.

With `CCOc1cccc(CSc2nc(=O)ccn2CC)n1`, the IC50 was > 501 µM in experiment [1] and 460 µM in experiment [2].

`Clc1cnc(NCCNCc2cc[nH]n2)c(Cl)c1`: the IC50 is > 501 µM in experiment [1] and 227 µM in experiment [2].

`Cc1ccc(C2(O)CCNC2)cc1` (stereo not given): the figures for the IC50 in experiment [1] and in experiment [2] were > 501 µM and 181 µM, respectively.

Regarding `CN(Cc1ccc(N)nc1)c1ncc(Cl)cn1`, the IC50 in experiment [1] is 237 µM; in experiment [2] it was 208 µM.

As to `CC(C)c1ccc2c(c1)C(N)C(=O)N2` (stereo not given), the IC50 in experiment [1] and in experiment [2] was > 501 µM throughout.

Regarding `COc1cccc(NC(CN)c2ccccc2)c1` (stereo not given), the IC50 in experiment [1] was > 501 µM; in experiment [2], 187 µM.

On to `CCS(=O)(=O)NC1CCN(c2cc(Br)ccn2)CC1`, for which the results for the IC50 in experiment [1] and in experiment [2] were > 501 µM and 146 µM, respectively.

With `Cc1cccc(OCC(O)CNc2ncccc2F)c1` (stereo not given), the IC50 was 11.6 µM in experiment [1] and 19.7 µM in experiment [2].

Take `COc1ccc(CN2C[C@H](O)[C@@H](N(C)C)C2)c(C)c1C`: the results for the IC50 in experiment [1] and in experiment [2] were 349 µM and 105 µM, respectively.

Regarding `CCOC(C(=O)N(C)CC(N)=O)c1ccccc1` (stereo not given), the IC50 in experiment [1] and in experiment [2] was > 501 µM throughout.

Take `COC(=O)COc1ccc(C(C)=O)cc1Cl`: the values for the IC50 in experiment [1] and in experiment [2] were 354 µM and 264 µM, respectively.

With `c1ccc(Oc2cccc(NCc3csnn3)c2)nc1`, the IC50 in experiment [1] is 171 µM; in experiment [2], 298 µM.

As to `O=C(Cc1cn2ccsc2n1)NCC1CCC1`, the IC50 in experiment [1] was 179 µM; in experiment [2], 282 µM.

For `CCC(N)C(=O)Nc1ccc2c(c1)C(=O)CCC2` (stereo not given), the IC50 was 137 µM in experiment [1] and 163 µM in experiment [2].

Regarding `CCC1c2ccsc2CCN1CC(=O)NC` (stereo not given), the IC50 in experiment [1] and in experiment [2] was > 501 µM throughout.

In the case of `COc1ccnc(NCCS(=O)(=O)c2ccccc2)n1`, the IC50 in experiment [1] and in experiment [2] was > 501 µM throughout.

`NC(=O)C1CCN(C(=O)COc2ccc(F)cc2Br)C1` (stereo not given): the IC50 in experiment [1] and in experiment [2] was > 501 µM in each case.

On to `CCNC(=O)c1cc(N2CCC(COC)CC2)ccn1`, for which the IC50 was > 501 µM in experiment [1] and 125 µM in experiment [2].

Take `COc1cccc(Cl)c1CN1CCCNCC1`: the IC50 in experiment [1] is 251 µM; in experiment [2] it was 228 µM.

`CCOC(=O)c1cnn(-c2ccc(OCC)cc2)c1N`: the figures for the IC50 in experiment [1] and in experiment [2] were 53.9 µM and 81.7 µM, respectively.

Consider `CC(N)C(=O)N1CCC(Oc2ccccc2Cl)CC1` (stereo not given), for which the IC50 is 227 µM in experiment [1] and 288 µM in experiment [2].

For the compound `NC(=O)NC(=O)CCS(=O)(=O)c1cc(F)ccc1F`, the values for the IC50 in experiment [1] and in experiment [2] were 139 µM and 70.1 µM, respectively.

`COc1ccc(C(=O)NC(C)Cn2cccn2)c(O)c1` (stereo not given): the IC50 is 276 µM in experiment [1] and 256 µM in experiment [2].

Regarding `COc1cccc(CS(=O)(=O)Nc2ccc(C)nc2)c1`, the IC50 is > 501 µM in experiment [1] and 307 µM in experiment [2].

Regarding `CN(Cc1cccc(F)c1)C(=O)c1cnccn1`, the IC50 in experiment [1] and in experiment [2] was > 501 µM throughout.

For the compound `CNC(=O)CNC(=O)c1cc2ccccc2cc1OC`, the IC50 in experiment [1] and in experiment [2] was > 501 µM throughout.

In the case of `Cc1ccc2c(c1)nc(CN)n2C`, the results for the IC50 in experiment [1] and in experiment [2] were 348 µM and 231 µM, respectively.

In the case of `CN(Cc1cnn(C)c1)C(=O)c1cc(Br)c[nH]1`, the IC50 in experiment [1] is > 501 µM; in experiment [2], 95.2 µM.

Consider `CC(N)Cc1nc(-c2ccccc2)no1` (stereo not given), for which the IC50 in experiment [1] was 115 µM; in experiment [2], 173 µM.

Consider `CC(OC(=O)c1ccc(C(F)(F)F)cc1)C(N)=O` (stereo not given), for which the values for the IC50 in experiment [1] and in experiment [2] were 466 µM and 229 µM, respectively.

On to `OCC1CN(c2ncc(Cl)cc2F)CCO1` (stereo not given), for which the IC50 is 180 µM in experiment [1] and 115 µM in experiment [2].

Turning to `O=C(NCC(O)c1ccc(F)cc1)Nc1cnns1` (stereo not given), the IC50 in experiment [1] and in experiment [2] was > 501 µM in each case.

With `CS(=O)(=O)NCCc1csc(N2CCCC2)n1`, the IC50 is > 501 µM in experiment [1] and 132 µM in experiment [2].

For the compound `CCOC(=O)c1cccnc1NCc1cnn(C)c1C`, the IC50 was > 501 µM in experiment [1] and 180 µM in experiment [2].

As to `Cc1ccc2[nH]c(CN)nc2c1C`, the IC50 in experiment [1] was > 501 µM; in experiment [2], 246 µM.

As for `Cc1ccc(S(=O)(=O)CCC(=O)NC(N)=O)cc1`, the IC50 is > 501 µM in experiment [1] and 155 µM in experiment [2].

Regarding `NCCCOc1ncc(C(F)(F)F)cc1Cl`, the IC50 is 238 µM in experiment [1] and 101 µM in experiment [2].

Regarding `Cc1ccc(C(C)NC(=O)Nc2nccn(C)c2=O)o1` (stereo not given), the IC50 in experiment [1] and in experiment [2] was > 501 µM each time.

Regarding `COc1ccc([C@H]2C[C@H](N)C2)cc1F`, the IC50 in experiment [1] was 60.7 µM; in experiment [2], 95 µM.

For the compound `Cc1nnc(SCCN)s1`, the IC50 in experiment [1] and in experiment [2] was > 501 µM throughout.

For `Cc1ccc(OC2CN(C(=O)[C@H](N)C(C)C)C2)cc1`, the IC50 in experiment [1] is 236 µM; in experiment [2] it was 393 µM.

For `FC(F)Oc1cccc(C2CNCCO2)c1` (stereo not given), the values for the IC50 in experiment [1] and in experiment [2] were 112 µM and 34 µM, respectively.

As to `CNC(=O)CSCc1nc(-c2ccccc2C)no1`, the IC50 is 156 µM in experiment [1] and 134 µM in experiment [2].

As to `CCc1ccc(C(=O)CSc2nnc(N)[nH]2)cc1`, the IC50 in experiment [1] was 449 µM; in experiment [2], 176 µM.

On to `COc1cccc(OC2CNC2)c1`, for which the IC50 in experiment [1] and in experiment [2] was > 501 µM each time.

Regarding `COc1ccc2c(c1)CCN2C(=O)C(C)(C)C#N`, the IC50 is 293 µM in experiment [1] and 156 µM in experiment [2].

On to `COc1cc(OC)c(NC(=O)Cn2ccnc2)cc1Cl`, for which the figures for the IC50 in experiment [1] and in experiment [2] were 264 µM and 243 µM, respectively.

Turning to `CNC(=O)CCN1CCC(=Cc2ccccc2)CC1`, the values for the IC50 in experiment [1] and in experiment [2] were > 501 µM and 258 µM, respectively.

As for `Cc1nc(C(=O)NCCN2CCCC2)c(C)s1`, the figures for the IC50 in experiment [1] and in experiment [2] were > 501 µM and 308 µM, respectively.

In the case of `COc1ccnc(NC(=O)NCc2cccs2)c1`, the IC50 in experiment [1] was 119 µM; in experiment [2], 90.3 µM.

As to `CC(C)CCOCCSc1nnnn1C`, the results for the IC50 in experiment [1] and in experiment [2] were 82.3 µM and 155 µM, respectively.

Turning to `Cc1ccc(CNC(=O)c2cnn(C)c2)cc1F`, the IC50 was > 501 µM in experiment [1] and 275 µM in experiment [2].

As for `Cc1ccc(C(=O)CCN2CCOCC2C(N)=O)cc1` (stereo not given), the IC50 in experiment [1] is 152 µM; in experiment [2] it was 59 µM.

On to `O=C(c1cc(C2CC2)on1)N1CCC2(CCOCC2)C1`, for which the IC50 in experiment [1] is 25.4 µM; in experiment [2] it was 20.5 µM.

As for `CC(CN)c1nc(-c2ccccc2)no1` (stereo not given), the IC50 in experiment [1] was 410 µM; in experiment [2], 179 µM.

Turning to `O=C(Cn1ccc(C(F)(F)F)n1)NCc1ccco1`, the IC50 in experiment [1] and in experiment [2] was > 501 µM each time.

Consider `Cn1cc(NC(=O)c2ccc(Br)s2)cc1C(N)=O`, for which the results for the IC50 in experiment [1] and in experiment [2] were 285 µM and 341 µM, respectively.

Turning to `CCc1nc(CNc2ccc(C#N)nc2)cs1`, the IC50 was 96.8 µM in experiment [1] and 113 µM in experiment [2].

As for `CN(Cc1ccc(Cl)s1)C(=O)C1CCN(C(N)=O)CC1`, the IC50 in experiment [1] and in experiment [2] was > 501 µM throughout.

On to `Cc1cccnc1NCCNC1CSCCSC1`, for which the IC50 in experiment [1] is > 501 µM; in experiment [2], 248 µM.

As for `COc1ccc(CCN2CCCNCC2)cc1`, the results for the IC50 in experiment [1] and in experiment [2] were 159 µM and 73.3 µM, respectively.
